Measurements: BindingDB's records for PubMed 7815359 (University of Pennsylvania, 1995)

Biological target: Mu-type opioid receptor (Rattus norvegicus, UniProt P33535)
Sequence (P33535 whole entry): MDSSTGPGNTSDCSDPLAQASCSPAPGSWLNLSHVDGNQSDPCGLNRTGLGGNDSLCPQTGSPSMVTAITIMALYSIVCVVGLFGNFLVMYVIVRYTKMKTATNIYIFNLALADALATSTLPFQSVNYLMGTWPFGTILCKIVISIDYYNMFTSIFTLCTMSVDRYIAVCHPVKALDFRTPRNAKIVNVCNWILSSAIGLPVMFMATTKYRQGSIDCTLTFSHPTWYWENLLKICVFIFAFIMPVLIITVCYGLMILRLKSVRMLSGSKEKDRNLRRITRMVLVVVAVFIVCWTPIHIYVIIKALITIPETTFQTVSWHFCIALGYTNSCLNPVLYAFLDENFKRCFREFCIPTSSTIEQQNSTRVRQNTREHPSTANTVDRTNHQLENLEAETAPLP

Substance: H-YGGFMTSEKSQTPLVTLFKNAIVKNAHKKGQ-OH [Beta-Endorphin]
- Ki: 1.7 nM
